Measurements published in patent US6514981B1, “Methods of modulating tyrosine protein kinase function with indolinone compounds” (Sugen, Inc., priority 1998, dated 2003).

How the values were obtained:
HUV-EC-C cells = assay: HUV-EC-C assay (3H-thymidine), VEGF; format: cell-based; conditions: Homo sapiens, 3H-thymidine incorporation, HUVEC
Procedure: The following protocol may also be used to measure a compound's activity against PDGF-R, FGF-R or Flk-1/KDR, all of which are naturally expressed by HUV-EC cells. 1. Wash and trypsinize HUV-EC-C cells (human umbilical vein endothelial cells, (American Type Culture Collection; catalogue no. 1730 CRL). Wash with Dulbecco's phosphate-buffered saline (D-PBS; obtained from Gibco BRL, catalogue no. 14190-029) 2 times at about 1 mL/10 CM^2 of tissue culture flask. Trypsinize with 0.05% trypsin-EDTA in non-enzymatic cell dissociation solution (Sigma Chemical Company; catalogue no. C-1544). The 0.05% trypsin was made by diluting 0.25% trypsin/1 mM EDTA (Gibco; catalogue no. 25200-049) in the cell dissociation solution. Trypsinize with about 1 mL/25-30 cm^2 of tissue culture flask for about 5 minutes at 37° C. After cells have detached from the flask, add an equal volume of assay medium and transfer to a 50 mL sterile centrifuge tube (Fisher Scientific; catalogue no. 05-539-6). 2. Wash the cells with about 35 mL assay medium in the 50 mL sterile centrifuge tube by adding the assay medium, centrifuge for 10 minutes at approximately 200×g aspirate the supernatant and resuspend with 35 mL D-PBS. Repeat the wash two more times with D-PBS, resuspend the cells in about 1 mL assay medium/15 cm^2 of tissue culture flask. […]

human FLK-1 = human FLK-1 (Homo sapiens, UniProt P35968); assay: FLK-1 receptor phosphorylation assay in cells (ELISA); format: cell-based; conditions: NIH3T3 C7#3 cells, VEGF stimulation

SMILES: Cc1cc(/C=C2/C(=O)Nc3ccccc32)c(C)c2c1[nH]c1ccccc12 [VI]
- IC50 (HUV-EC-C cells): 0.68 µM
- IC50 (human FLK-1): 4.84 µM
